Measurements: patent US11759434B2, “Methods and compositions for treating melanoma and non-melanoma skin cancers” (Sytheon Limited, priority 2022, dated 2023)
pIC50: −log10 of the molar value. One block for each molecule: values may come before it.

Tests used:
AMPK = AMPK activation study (phosphorylation of AMPK at Thr-172) in epidermal keratinocytes; type: cell-based, human; settings: for AMPK-P/Protein Ratio: two hours
Method: (§1) AMPK activation is a known and efficacious treatment for melanoma and non-melanoma skin cancer (See. e.g., Chen. L. et. al., “AMPK Activation by GSK621 Inhibits Human Melanoma Cells In Vitro and In Vivo”, Biochemical and Biophysical Research Communications 480 (2016), 515-521). To ascertain the ability and efficacy of the compounds of Structure 1 to activate AMPK, a cell assay study was undertaken. In the study, human epidermal keratinocytes were grown using EpiLife Media (60 μM calcium) supplemented with 0.2% v/v bovine pituitary extract, 1 μg/ml recombinant human insulin-like growth factor-I, 0.18 μg/ml hydrocortisone, 5 μg/ml bovine transferrin, 0.2 ng/ml human epidermal growth factor. The cells were grown at 37±2° C. and 5±1% CO2. The keratinocytes were seeded into 96-well plates and cultured overnight to allow the cells to adhere to the well plates. Prior to experimental use, the growth media was replaced with basal media (unsupplemented EpiLife Media) for five hours prior to starting any treatments.
The ability of the test material to activate AMPK was determined by measuring the phosphorylation of AMPK. The epidermal keratinocytes were treated with the test material prepared in basal media for two hours. At the end of the two-hour incubation the culture media was removed and the cells were fixed in 4% formaldehyde for 20 minutes at room temperature. After the fixation, the cells were washed three times with wash solution (1 minute per wash) and any endogenous peroxidase activity was quenched by adding 100 ul of a 0.3% H2O2 solution to the wells and incubating the plate for another 20 minutes. After washing as described above, non-specific antibody binding was blocked by adding 200 ul of blocking buffer to each well and incubating the plate for 1 hour at room temperature. […] After this incubation the well plate was read using a fluorometer at 530ex/590em to determine AMPK phosphorylation and at 360ex/485em to determine total cellular protein.

[1] = test system: Senescent Associated β-Galactosidase (SA-B-Gal); assay: Senescent Associated β-Galactosidase (SA-B-Gal) activity assay; type: cell-based, human; settings: 3 days
Method: as §1
(§2) The foregoing effect of AZ as an AMPK activator and, in turn, anti-melanoma treatment is especially surprising in light of the pro-viability effect of AZ in normal cells, even those in senescence. Specifically, following on the foregoing experimental methodology, additional studies were conducted on the human keratinocytes cells to assess AZ's impact on cell viability as evidenced by an MTT assay as well as an assessment of its impact on SA-B-Gal activity. In these studies, the human epidermal keratinocytes were treated in basal media for two hours with the test material and then treated with either 50 uM or 100 uM H2O2 in basal media for an additional two hours: the latter treatment to induce senescence. Following the H2O2 treatment, the cells were placed in with fully supplemented EpiLife media for either 16 hours after which changes in cell viability was evaluated via an MTT assay or for 3 days after which changes in the cellular senescence marker beta galactosidase (SA-B-GAL) was evaluated.
SA-B-GAL Calculation: To determine the changes in SA-B-GAL expression a direct measure of SA-B-GAL activity was used. At the end of the three-day incubation the media was removed, 100 ul of ice-cold cell lysis buffer was added and the cells were lysed for 5 minutes at 4° C. At the end of this lysis procedure a portion of the lysate was used for a protein assay while 50 ul of the cell lysate was transferred to a new well plate and combined with an equal volume of SA-B-GAL reaction buffer containing a fluorescent substrate. This well plate was then incubated for 3 hours at 37° C., after which a 50 ul sample of the reaction was combined with 200 ul of stop solution in a new well plate and the plate was read using a fluorometer (360ex/485em), The fluorescence intensity was then normalized to cellular protein and this ratio was used as an index of SA-B-GAL activity.

[2] = test system: patient derived, NRAS-mutated melanoma cells; assay: Cell viability (Alamar blue) in melanoma cells; type: cell-based, human; settings: 3 days treatment, 3 biological repeats
Method: (§3) In support of the present teachings several experiments were conducted to assess the cytotoxicity of compound 1 (Acetyl Zingerone CAT), available as Synoxyl® AZ from Sytheon Ltd.) and Compound 4, its mono-methoxy analog (3-(4-Methoxy-benzyl)-pentane-2,4-dione (MBPD)), towards normal melanocytes (Normal, C57BL/6 mouse melanocytes, darkly pigmented), and patient derived, NRAS-mutated melanoma cells. On Day 1, the melanoma cells and normal melanocytes were seeded into the black walled 96 well plates (cat. no.—165305, thermo), ˜1000 cells per well and allowed to stand for one day. […] Thereafter, the dye was replaced with 100 ul PBS (Cat. no. 14190-144, Gibco) and cell viability as evidenced by fluorescence was recorded (by Biotek synergy/H1 microplate reader) at 560/590 nm. Cell survival was calculated by subtracting the background (media only) and then normalizing those results with the results obtained from the cells that were not treated with AZ or MBPD. […]

[3] = test system: human epidermal keratinocytes; assay: MTT assay (cell viability) after H2O2-induced senescence; type: cell-based
Method: as §1, §2
MTT Calculation: the mean MIT absorbance value for untreated cells not exposed to H2O2 was calculated and used to represent 100% cell viability. The individual MIT values from the cells undergoing the various treatments was then divided by the mean value for the untreated cells not exposed to H2O2 and expressed as a percent to determine the change in cell viability caused by each treatment.

[4] = test system: Normal, C57BL/6 mouse melanocytes, darkly pigmented; assay: Cell viability (Alamar blue) in normal melanocytes; type: cell-based; settings: Melanocyte, 72 h, 3 days treatment, 4 biological repeats
Method: as §3

[5] = test system: Trametinib resistant human, NRAS mutated, WM1366 melanoma cells; assay: MBPD/Trametinib synergy, cell viability (Alamar blue); type: cell-based
Method: Specifically, Trametinib resistant human, NRAS mutated, WM1366 melanoma cells were created in-house by sequentially treating the cells with various concentrations (2 nM-10 nM) of Trametinib for several weeks. Those cells which survived 2 nM Trametinib after two weeks, were then incubated with 4 nM Trametinib and those that survived 4 nM Trametinib for two weeks were isolated and then incubated with 10 nM for several weeks. This led to development of resistance in the WM1366 cells.
In this study, the Trametinib resistant cells were seeded into black walled 96 well plates (cat. no.—165305, thermo), ˜1000 cells per well employing the same media as noted in Example 1. On Day 2, the cells were treated with 125 or 62.5 μg/ml MBPD and incubated for 48 hours. After 48 hours, fresh cell-culture medium was added with MBPD and Trametinib at concentrations of 30, 15, 7.5, 3.75, 1.875, and 0.9375 nM and the cells allowed to sit for 72 hours. On Day 7, Alamar blue (cat. no. A50101, invitrogen) was added to each well and the cultures incubated for 1 hr in a CO2 incubator. Thereafter, the dye was replaced with 100 ul PBS (Cat no. 14190-144, Gibco) and cell viability as evidenced by fluorescence was recorded (by Biotek synergy/H1 microplate reader) at 560/590 nm.
Molar (M) IC50 values were calculated using formula weight of each of the compounds individually.

SA-B-Gal Activity/Protein ([1]; 12.5 μg/ml, 50 μM H2O2): 3.45 ± 0.29
SA-B-Gal Activity/Protein ([1]; 12.5 μg/ml, 100 μM H2O2): 3.29 ± 0.37
SA-B-Gal Activity/Protein ([1]; 25 μg/ml, 50 μM H2O2): 3.30 ± 0.23
SA-B-Gal Activity/Protein ([1]; 25 μg/ml, 100 μM H2O2): 3.95 ± 0.36
SA-B-Gal Activity/Protein ([1]; 50 μg/ml, 50 μM H2O2): 0.91 ± 0.06
SA-B-Gal Activity/Protein ([1]; 50 μg/ml, 100 μM H2O2): 0.90 ± 0.15
pIC50 [2]: 2.89
Structure (SMILES): COc1cc(CC(C(C)=O)C(C)=O)ccc1O [AZ, Acetyl Zingerone]
AMPK-P/Protein Ratio (AMPK; 25 μg/ml): 4.16 ± 0.65
increase of AMPK activity (AMPK; 50 μg/ml): 88.3%
AMPK-P/Protein Ratio (AMPK; 50 μg/ml): 6.48 ± 1.10
Viability (% of non-H2O2 exposed cells) ([3]; 12.5 μg/ml, 50 μM H2O2): 79.9 ± 11.5%
Viability (% of non-H2O2 exposed cells) ([3]; 12.5 μg/ml, 100 μM H2O2): 79.1 ± 1.4%
Viability (% of non-H2O2 exposed cells) ([3]; 25 μg/ml, 50 μM H2O2): 76.1 ± 6.9%
Viability (% of non-H2O2 exposed cells) ([3]; 25 μg/ml, 100 μM H2O2): 77.4 ± 9.6%
Viability (% of non-H2O2 exposed cells) ([3]; 50 μg/ml, 50 μM H2O2): 100.7 ± 8.3 %
Viability (% of non-H2O2 exposed cells) ([3]; 50 μg/ml, 100 μM H2O2): 100.2 ± 6.5%

pIC50 ([2]; Homo sapiens, 72 h): 3.40
reduction of the Trametinib IC50 by MBPD ([5]; 125 or 62.5 μg/ml MBPD, 48 h pre-incubation then MBPD plus Trametinib 72 h, 2 biological repeats): ~5 fold
Structure (SMILES): COc1ccc(CC(C(C)=O)C(C)=O)cc1 [MBPD, 3-(4-Methoxy-benzyl)-pentane-2,4-dione]
pIC50 [4]: 1.84

pIC50 ([5]; Homo sapiens, in-house generated, Trametinib resistant, NRAS-mutated melanoma cells): 7.70 to 8.00
Structure (SMILES): CC(=O)Nc1cccc(-n2c(=O)n(C3CC3)c(=O)c3c(Nc4ccc(I)cc4F)n(C)c(=O)c(C)c32)c1 [Trametinib, trametinib, reference compound]
